In patent publication US7776292B2 (priority 2004, dated 2010):
“And” between values parts separate entries of the source, which are not always exact repeats. Identical values can stand only once.

Assays:
Format in all cases: cell-based
weaponized spores [1] = system: weaponized spores
weaponized spores [2] = system: weaponized spores; remark: listed apart in the source
[3] = system: conventional biological indicator spores
weaponized spores [4] = system: weaponized spores; remark: listed apart in the source
[5] = system: conventional biological indicator spores; remark: listed apart in the source
weaponized spores [6] = system: weaponized spores; remark: listed apart in the source
[7] = system: conventional biological indicator spores; remark: listed apart in the source
weaponized spores [8] = system: weaponized spores; remark: listed apart in the source
[9] = system: TP 10 (conventional bioindicator spores)
weaponized spores [10] = system: weaponized spores; remark: listed apart in the source

## [O][Cl+][O-] [chlorine dioxide]
Weaponized spores [1]
  filters showing viable spores following decontamination (out of 16): none
Weaponized spores [2]
  filters with viable spores/filters, Humidification time 1 hour: 0/2
  filters with viable spores/filters, Humidification time 2 hours: 0/2
  filters with viable spores/filters, Humidification time 3 hours: 0/2
[3]
  filters with viable spores/filters, Humidification time 1 hour: 0/2
  filters with viable spores/filters, Humidification time 2 hours: 0/2
  filters with viable spores/filters, Humidification time 3 hours: 0/2
Weaponized spores [4]
  filters with viable spores/filters, ClO2 Concentration 500 ppm: 3/4 and 2/2; and 2/2
  filters with viable spores/filters, ClO2 Concentration 1000 ppm: 0/2
  filters with viable spores/filters, ClO2 Concentration 2500 ppm: 0/2
  viable spore count, ClO2 Concentration 500 ppm: 1.43 × 10^3
[5]
  filters with viable spores/filters, ClO2 Concentration 500 ppm: 0/2
  filters with viable spores/filters, ClO2 Concentration 1000 ppm: 0/2
  filters with viable spores/filters, ClO2 Concentration 2500 ppm: 0/2
Weaponized spores [6]
  viability in culture, Humidification Time 1 hour: Positive
  viability in culture, Humidification Time 2 hours: Positive
  viability in culture, Humidification Time 3 hours: Positive
[7]
  viability in culture, Humidification Time 1 hour: Negative
  viability in culture, Humidification Time 2 hours: Negative
  viability in culture, Humidification Time 3 hours: Negative
Weaponized spores [8]
  viable spores after Cycle 1: 5.7 × 10^4
  viable spores after Cycle 2: 0
  viable spores after Cycle 3: 3.3 × 10^1
[9]
  viable spores after Cycle 1: 4.3 × 10^5
  viable spores after Cycle 2: 1.3 × 10^3
  viable spores after Cycle 3: 7.2 × 10^2
Weaponized spores [10]
  10^−4 (Dilution on agar): TNTC
